Consider five compounds from paper PMC4559364, “Triterpenoid profiling and functional characterization of the initial genes involved in isoprenoid biosynthesis in neem (Azadirachta indica)” (BMC Plant Biology, 2015).

Common to all, as to format: biochemical
Experiment [1] concerns the target T1, AiFDS (Azadirachta indica, UniProt A0A088CNE3).
T1 construct: E. coli BL21(DE3); Ni-NTA
T1 sequence (A0A088CNE3 1-342): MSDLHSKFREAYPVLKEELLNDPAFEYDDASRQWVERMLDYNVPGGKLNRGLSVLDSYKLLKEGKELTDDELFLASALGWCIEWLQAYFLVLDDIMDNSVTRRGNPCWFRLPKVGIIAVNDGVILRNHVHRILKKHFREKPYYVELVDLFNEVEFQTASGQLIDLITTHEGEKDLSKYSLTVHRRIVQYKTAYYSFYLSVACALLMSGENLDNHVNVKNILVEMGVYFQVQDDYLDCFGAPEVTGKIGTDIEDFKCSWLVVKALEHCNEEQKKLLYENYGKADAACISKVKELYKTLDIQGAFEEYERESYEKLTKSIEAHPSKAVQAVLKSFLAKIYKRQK
Put plainly: GC-MS of (E,E)-farnesol after alkaline phosphatase. As to conditions: HEPES buffer, 30 °C, 2 h.

Experiment [2] deals with T2, AiGDS (Azadirachta indica, UniProt A0A088CND2).
T2 construct: E. coli; solubilised from inclusion bodies by pH 11 to 7 shift; Ni-NTA; homomeric type; mitochondrial targeting predicted
T2 sequence (A0A088CND2 1-420): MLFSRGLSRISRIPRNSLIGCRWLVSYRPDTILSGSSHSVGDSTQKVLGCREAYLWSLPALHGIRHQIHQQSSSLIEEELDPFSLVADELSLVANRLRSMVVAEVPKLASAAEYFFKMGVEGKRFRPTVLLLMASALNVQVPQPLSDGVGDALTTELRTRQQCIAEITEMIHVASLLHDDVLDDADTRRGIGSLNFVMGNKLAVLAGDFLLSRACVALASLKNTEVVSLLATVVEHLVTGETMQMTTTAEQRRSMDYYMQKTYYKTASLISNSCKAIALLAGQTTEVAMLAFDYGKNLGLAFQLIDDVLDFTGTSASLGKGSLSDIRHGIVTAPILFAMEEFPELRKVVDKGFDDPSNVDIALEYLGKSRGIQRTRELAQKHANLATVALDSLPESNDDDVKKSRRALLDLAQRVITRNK
Put plainly: GC-MS of geraniol after alkaline phosphatase. As to conditions: HEPES buffer, 30 °C, 2 h.

In experiment [3] the target is T3, full length AiSQS (Azadirachta indica, UniProt I1Z8B6).
T3 construct: gene SQS1; full-length, printed as 396 residues from 1176 bp ORF (these disagree), 44 kDa; pRSET-C, His6 tag; E. coli BL21 Star(DE3); glycerol/CHAPS, Ni-NTA
Put plainly: GC-MS of squalene. As to conditions: 100 μM FPP, 1 mM NADPH; 30 °C, 2 h.

Experiment [4] concerns the target T4, truncated AiSQS (Azadirachta indica, UniProt I1Z8B6).
T4 construct: gene SQS1; truncated: 15 N-terminal and 63 C-terminal residues deleted (end border uncertain, printed 396 residues and 1176 bp ORF disagree); pET28c, His6 tag; E. coli BL21(DE3); Ni-NTA; ~35 kDa
Put plainly: GC-MS of squalene. As to conditions: 100 μM FPP, 1 mM NADPH; 30 °C, 2 h.

T3 sequence (I1Z8B6 entry or part of it): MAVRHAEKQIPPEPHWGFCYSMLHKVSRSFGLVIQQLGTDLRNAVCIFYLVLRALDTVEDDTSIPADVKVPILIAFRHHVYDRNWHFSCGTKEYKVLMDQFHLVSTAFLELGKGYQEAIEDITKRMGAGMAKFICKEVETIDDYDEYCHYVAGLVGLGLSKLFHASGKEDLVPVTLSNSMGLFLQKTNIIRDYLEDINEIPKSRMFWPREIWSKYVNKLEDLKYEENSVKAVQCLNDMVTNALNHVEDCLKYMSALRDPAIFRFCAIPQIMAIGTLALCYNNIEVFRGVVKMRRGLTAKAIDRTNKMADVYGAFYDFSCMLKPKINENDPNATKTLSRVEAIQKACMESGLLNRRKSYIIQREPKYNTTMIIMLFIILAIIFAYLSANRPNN
T4 sequence (I1Z8B6 entry or part of it): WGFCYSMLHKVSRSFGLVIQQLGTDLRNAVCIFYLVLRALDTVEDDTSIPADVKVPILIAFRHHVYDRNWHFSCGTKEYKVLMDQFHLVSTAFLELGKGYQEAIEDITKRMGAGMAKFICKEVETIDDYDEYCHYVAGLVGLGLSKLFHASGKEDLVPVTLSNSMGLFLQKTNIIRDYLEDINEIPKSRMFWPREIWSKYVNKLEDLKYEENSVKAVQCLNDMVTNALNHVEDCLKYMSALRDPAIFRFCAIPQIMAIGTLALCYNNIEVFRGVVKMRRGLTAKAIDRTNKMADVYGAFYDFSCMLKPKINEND

As to `CC(C)=CCC/C(C)=C/COP(=O)(O)OP(=O)(O)O` [GPP], the “GC-MS of (E,E)-farnesol after alkaline phosphatase” value in experiment [1] (with IPP, GPP 100 μM) was “purified short-chain prenyltransferase was incubated with DMAPP/GPP and IPP followed by treatment with alkaline phosphatase”.

On to `C=C(C)CCOP(=O)(O)OP(=O)(O)O` [IPP], for which, in experiment [2] (with DMAPP, IPP 100-200 μM), the “GC-MS of geraniol after alkaline phosphatase” value is “Purified recombinant AiGDS was incubated with equimolar concentration of IPP and DMAPP”. Moreover, the “GC-MS of (E,E)-farnesol after alkaline phosphatase” value in experiment [1] (with DMAPP or GPP, IPP 100-200 μM) is “purified short-chain prenyltransferase was incubated with DMAPP/GPP and IPP followed by treatment with alkaline phosphatase”.

On to `CC(C)=CCC/C(C)=C/CC/C(C)=C/COP(=O)(O)OP(=O)(O)O` [FPP], for which the GC-MS of squalene entry was “full length and truncated AiSQS with FPP in the presence of NADPH” in experiment [3]; “full length and truncated AiSQS with FPP in the presence of NADPH” in experiment [4].

For `CC(C)=CCOP(=O)(O)OP(=O)(O)O` [DMAPP], the “GC-MS of geraniol after alkaline phosphatase” value in experiment [2] (with IPP, DMAPP 100 μM) is “Purified recombinant AiGDS was incubated with equimolar concentration of IPP and DMAPP”.

In the case of `NC(=O)C1=CN([C@@H]2O[C@H](COP(=O)(O)OP(=O)(O)OC[C@H]3O[C@@H](n4cnc5c(N)ncnc54)[C@H](OP(=O)(O)O)[C@@H]3O)[C@@H](O)[C@H]2O)C=CC1` [NADPH], the GC-MS of squalene entry in experiment [3] was “full length and truncated AiSQS with FPP in the presence of NADPH”; in experiment [4], “full length and truncated AiSQS with FPP in the presence of NADPH”.
